Measured values from patent publication US11780843B2, “Compounds active towards nuclear receptors” (NUEVOLUTION A/S, priority 2020, dated 2023).
pIC50: −log10 of the molar value. Read-outs that look alike come from different tables or passages of the source.

Columns and labels:
[1] = system: IL-17A secretion in activated PBMCs; test: IL-17A secretion in activated PBMCs; assay type: cell-based; conditions: human PBMCs stimulated with CD3/CD28 Dynabeads for 48 h, absolute IC50
Source text: Heparin-treated whole blood from healthy human volunteers was supplied from Hospital de Sant Pau (Barcelona) under the approval of the local ethical review board for human studies (Hospital de Sant Pau, Barcelona, Spain). Human peripheral blood mononuclear cells (PBMCs) were isolated from healthy human volunteers by density gradient centrifugation using the Ficoll-Paque (GE Healthcare). PBMCs were suspended in cell culture medium which consisted on RPMI 1640 medium (Sigma-Aldrich) containing 10% heat inactivated fetal bovine serum (Sigma-Aldrich), 2 mM L-Glutamine (Gibco), 20 mM Hepes (Gibco) and 100 U/mL penicillin (Sigma-Aldrich). Cells were seeded in 384-well plate (DiscoverX), at 40,000 cells per well and cultured 2 h at 37° C. and 5% CO2.
Dose-response curves with compounds were prepared using a 5-fold serial dilution (10 concentrations) in 100% DMSO and further diluted 100-fold in culture medium. Compound solutions (5 μL) were added to the plate containing cells (final DMSO concentration of 0.1%) and incubated for 30 min. Then, cells were stimulated with CD3/CD28 Dynabeads (ThermoFisher, at a bead-to-cell ratio of 1:1) for 48 h at 37° C. and 5% CO2.
IL-17A levels in supernatant were determined by immunoassay using hIL17A QBeads (Intellicyt) and by fluorescence analysis in iQue flow cytometer following the manufacturer's instructions. Inhibition of IL-17A secretion was calculated using the following formula: inhibition=100*[1−[(x−mean basal condition)/(mean top condition—mean basal condition)]]. Activated DMSO-treated cells were used as top condition and activated GNE09461 (10 μM)-treated cells as basal condition.

[2] = target: T1, RORγ ligand-binding domain (Homo sapiens, UniProt P51449); test: RORγ Reporter Assay (Gal4); assay type: cell-based
T1 construct: Gal4 (galactose-responsive transcription factor); expressed in transfected cells; host or cells: HEK293, transient co-transfection
T1 sequence (P51449 269-508 limits assumed): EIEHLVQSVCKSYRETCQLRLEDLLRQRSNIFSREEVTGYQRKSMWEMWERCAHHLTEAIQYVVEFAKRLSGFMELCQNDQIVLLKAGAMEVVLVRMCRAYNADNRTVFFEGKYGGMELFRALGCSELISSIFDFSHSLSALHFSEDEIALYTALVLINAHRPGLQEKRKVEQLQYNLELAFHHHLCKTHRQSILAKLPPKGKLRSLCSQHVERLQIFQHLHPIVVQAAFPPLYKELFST
In short: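 HEK293 cells transiently co-transfected with Gal4–RORγ LBD fusion and UAS-luciferase reporter, plated 2 h, then exposed to compound (0.1% DMSO final) for 24 h at 37 °C. Luminescence read; percent reduction vs vehicle fitted to dose-response curves.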

plasma IL-17A = test: In vivo IL-17A induction in anti-CD3 model in mice; conditions: oral gavage twice daily day 0 to day 3, anti-CD3e induced C57BL/6JRj mice
Protocol: Male C57BL/6JRj mice (7 week old) were purchased from Janvier Labs and housed at the animal facilities of Almirall throughout the study. Animals were allowed to condition for 5 days in their new environment at 22° C.±2° C., 55%±10% relative humidity and 12 h:12 h light:dark cycles. Animals were housed in polycarbonate cages, with free access to water and non-purified stock diet (2014 Teklad Global 14% Protein Rodent Maintenance Diet, Envigo) during the full course of the studies. Care of animals was undertaken in compliance with the European Committee Directive 2010/63/EU, and the Catalan and Spanish law. […]
Plasma levels of IL-17A were measured by ELISA (R&D Systems) according to the manufacturer's instruction. Results were calculated as the percentage of reduction of plasma IL-17A versus the difference between non-induced and anti-CD3e induced groups through the formula: inhibition=100*[1−[(x−mean non-induced)/(mean control vehicle−mean non-induced)]]. The IL-17A inhibition for each treatment can be expressed as the mean for each treatment group±S.E.M. Statistical analysis of data were conducted with one-way ANOVA followed by Dunnett's multiple comparisons test when appropriate. […]

Th17 cells = test: Th17 Assay (IL-17 levels in supernatants of differentiated Th17 cells); assay type: cell-based; conditions: Homo sapiens, 168 h; naive CD4+ T cells differentiated to Th17 for seven days, IL-17 by ELISA
Protocol: Human peripheral blood mononuclear cells (PBMCs) were isolated from buffy coats of healthy human volunteers using the Ficoll paque PLUS kit (GE Healthcare, cat no 17-1440-02), as instructed by the manufacturer. Naive CD4+ T cells were isolated with Naive CD4+ T cell kit, human (Milteny Biotec, cat no 130-094-131). The following modifications were made to the manufacturer's protocol: 1) Incubation with Biotin-Antibody Cocktail and Anti-Biotin MicroBeads was prolonged to 30 minutes, and 2) Cells were washed with 40 mL of Miltenyi buffer. Differentiation of Th17 cells in anti-CD3 (BD Pharmingen, 5 μg/ml) coated 96-well plates (400,000 cells/well, 160 μl RPMI 1640+10% Fetal Bovine Serum) containing 5 μg/ml anti-CD28 (BD Pharmingen), 10 ng/ml IL-2 (R&D Systems), 2.5 ng/ml TGFβ-1 (R&D Systems), 20 ng/ml IL-10 (R&D Systems), 20 ng/ml IL-6 (R&D Systems), 30 ng/ml IL-23 (R&D Systems), 2.5 μg/ml anti-IL-4 (R&D Systems) and 1 μg/ml anti-IFNγ (R&D Systems) and with test compound during the entire differentiation (or vehicle, 0.1% DMSO for control). Test compounds were tested in triplicates, diluted 1000-fold in medium (final DMSO concentration is 0.1%). […] IL-17 levels in supernatants were measured with ELISA (R&D Systems).

[3] = HEK293 cells, luciferase reporter, 24 h incubation, absolute IC50, read-out: IC50

| Structure (SMILES) | pIC50 ([1]; Homo sapiens, PBMC, 48 h) | pIC50 [2, 3] | pIC50 ([2]; stated as a bound only (Tables 5 a, 6, 7), read-out: Gal4 assay IC50) | Inhibition of IL-17A (%) at 3 mg/kg (plasma IL-17A) [%] | pIC50 (Th17 cells) | pIC50 [1] |
| --- | --- | --- | --- | --- | --- | --- |
| NC(=O)CN1CC[C@](O)(Cn2ccc3c(N(Cc4ccc(C(F)(F)F)cc4)C4CC4)ncnc32)[C@@H](O)C1 (single isomer, unassigned) [Example L5-1-1-1] | 8.44 | 8.66 | > 7.00 | 94 |  |  |
| NC(=O)CN1CCC(Cn2ccc3c(N4CCOCC4c4ccc(C(F)(F)F)cc4)ncnc32)CC1 (single isomer, unassigned) [Example P6-02-2] |  | 7.52 |  |  | 6.91 |  |
| CCN(Cc1ccc(-n2cccn2)cc1)c1ncnc2c1ccn2C[C@@H]1CCN(CC(N)=O)C[C@H]1O (relative stereo) [P6-30″, rel-2-((3R,4R)-4-((4-((4-(1H-pyrazol-1-yl)benzyl)(ethyl)amino)-7H-pyrrolo[2,3-d]pyrimidin-7-yl)methyl)-3-hydroxypiperidin-1-yl)acetamide] | 7.00 | 8.19 |  |  |  |  |
| CCN(Cc1ccc(-n2cccn2)cc1)c1ncnc2c1ccn2C[C@@]1(O)CCN(CC(N)=O)C[C@@H]1O (relative stereo) [R5-1″, rel-2-((3R,4R)-4-((4-((4-(1H-pyrazol-1-yl)benzyl)(ethyl)amino)-7H-pyrrolo[2,3-d]pyrimidin-7-yl)methyl)-3,4-dihydroxypiperidin-1-yl)acetamide] | 7.10 | 7.89 |  |  |  |  |
| CCN(Cc1ccc(C(F)(F)F)cc1)c1ncnc2c1ccn2C[C@@H]1CCN(CC(N)=O)C[C@H]1O (single isomer, unassigned) [Example P6-24-1] |  | 8.31 |  |  |  | 8.00 |
| NC(=O)CN1CC[C@@H](Cn2ccc3c(N(Cc4ccc(-n5cccn5)cc4)C4CC4)ncnc32)[C@H](O)C1 (relative stereo) [P6-33″, rel-2-((3R,4R)-4-((4-((4-(1H-pyrazol-1-yl)benzyl)(cyclopropyl)amino)-7H-pyrrolo[2,3-d]pyrimidin-7-yl)methyl)-3-hydroxypiperidin-1-yl)acetamide] | 8.00 | 8.07 |  |  |  |  |
| NC(=O)CN1CC[C@@H](Cn2ccc3c(N(Cc4ccc(C(F)(F)F)cn4)C4CC4)ncnc32)[C@H](O)C1 (single isomer, unassigned) [Example P6-23-1] | 7.23 | 8.00 |  |  |  |  |
| NC(=O)CN1CC[C@](O)(Cn2ccc3c(N(Cc4ccc(-n5cccn5)cc4F)C4CC4)ncnc32)[C@@H](O)C1 (relative stereo) [R5-4″, rel-2-((3R,4R)-4-((4-(cyclopropyl(2-fluoro-4-(1H-pyrazol-1-yl)benzyl)amino)-7H-pyrrolo[2,3-d]pyrimidin-7-yl)methyl)-3,4-dihydroxypiperidin-1-yl)acetamide] | 7.66 | 8.37 |  |  |  |  |
| CCN(Cc1ccc(C(F)(F)F)cc1)c1ncnc2c1ccn2C[C@@]1(O)CCN(CC(N)=O)C[C@@H]1O (single isomer, unassigned) [Example L5-2-1-2] | 8.51 | 8.70 |  |  |  |  |
